# Results from US6444612B1, “Use of 5-amino-pyrazol-derivatives for combating micro-organisms” (Bayer Aktiengesellschaft, priority 1998, dated 2002).
# Legend:
# Venturia inaequalis = assay: Venturia test (apple)/protective; assay type: in vivo; conditions: protective, application rate 100 g/ha, evaluation 12 days after inoculation, 100% = no infection
# Protocol: Venturia Test (Apple)/Protective
# (§1) Solvent: 47 parts by weight of acetone
# (§2) Emulsifier: 3 parts by weight of alkylaryl polyglycol ether
# (§3) To produce a suitable preparation of active compound, 1 part by weight of active compound is mixed with the stated amounts of solvent and emulsifier, and the concentrate is diluted with water to the desired concentration.
# To test for protective activity, young plants are sprayed with the preparation of active compound at the stated application rate. After the spray coating has dried on, the plants are inoculated with an aqueous conidia suspension of the apple pathogen Venturia inaequalis and then remain in an incubation cabin at about 20° C. and 100% relative atmospheric humidity for 1 day.
# The plants are then placed in the greenhouse at about 21° C. and a relative atmospheric humidity of about 90%.
# Evaluation is carried out 12 days after the inoculation. 0% means an efficacy which corresponds to that of the control, whereas an efficacy of 100% means that no infection is observed.
# [1] = log P value (physical constant); assay type: physicochemical; conditions: logP, Table 4
# [2] = system: Erysiphe graminis f.sp. tritici; assay: Erysiphe test (wheat)/protective; assay type: in vivo; conditions: protective, application rate 250 g/ha, evaluation 7 days after inoculation, 100% = no infection
# Protocol: Erysiphe Test (Wheat)/Protective
# (§4) Solvent: 25 parts by weight of N,N-dimethylacetamide
# Emulsifier: 0.6 part by weight of alkylaryl polyglycol ether
# as §3
# To test for protective activity, young plants are sprayed with the preparation of active compound at the stated application rate.
# After the spray coating has dried on, the plants are dusted with spores of Erysiphe graminis f.sp. tritici.
# The plants are placed in a greenhouse at a temperature of about 20° C. and a relative atmospheric humidity of about 80% to promote the development of mildew pustules.
# (§5) Evaluation is carried out 7 days after the inoculation. 0% means an efficacy which corresponds to that of the control, whereas an efficacy of 100% means that no infection is observed.
# Pyrenophora teres = Pyrenophora teres test (barley)/curative; assay type: in vivo; conditions: curative, application rate 250 g/ha, evaluation 7 days after inoculation, 100% = no infection
# Protocol: Pyrenophora Teres Test (Barley)/Curative
# as §4
# Emulsifier: 0.6 parts by weight of alkylaryl polyglycol ether
# as §3
# To test for curative activity, young plants are sprayed with a conidia suspension of Pyrenophora teres. The plants remain in an incubation cabin at 20° C. and 100% relative atmospheric humidity for 48 hours. The plants are then sprayed with the preparation of active compound at the stated application rate.
# The plants are placed in a greenhouse at a temperature of about 20° C. and a relative atmospheric humidity of about 80%.
# as §5
# Podosphaera leucotricha = assay: Podosphaera test (apple)/protective; assay type: in vivo; conditions: protective, application rate 100 g/ha, evaluation 10 days after inoculation, 100% = no infection
# Protocol: Podosphaera Test (Apple)/Protective
# as §1, §2, §3
# (§6) To test for protective activity, young plants are sprayed with the preparation of active compound at the stated application rate. After the spray coating has dried on, the plants are inoculated with an aqueous spore suspension of the apple mildew pathogen Podosphaera leucotricha. The plants are then placed in a greenhouse at about 23° C. and a relative atmospheric humidity of about 70%.
# Evaluation is carried out 10 days after the inoculation. 0% means an efficacy which corresponds to that of the control, whereas an efficacy of 100% means that no infection is observed.
# Sphaerotheca fuliginea = assay: Sphaerotheca test (cucumber)/protective; assay type: in vivo; conditions: protective, application rate 100 g/ha, evaluation 10 days after inoculation, 100% = no infection
# Protocol: Sphaerotheca Test (Cucumber)/Protective
# as §1, §2, §3
# as §6, with “Sphaerotheca fuliginea.” for “the apple mildew pathogen Podosphaera leucotricha.”
# Evalution is carried out 10 days after the inoculation. 0% means an efficacy which corresponds to that of the control, whereas an efficacy of 100% means that no infection is observed.
smiles,measurement,setting,value
CCc1cc(NC(=O)Cc2ccc(-c3ccc(OC(F)(F)F)cc3)cc2)n(C)n1,Efficacy in %,Venturia inaequalis,96%
"CCOC(=O)c1c(CC)nn(C)c1NC(=O)Cc1ccc(OC)cc1 [Example 1, 4-ethoxycarbonyl-3-ethyl-5-(4-methoxyphenylacetyl)-amino-1-methylpyrazole]",melting point,,112 to 113 °C
"CCc1nn(C)c(NC(=O)Cc2ccc(Br)cc2)c1Cl [Example 5, 5-(4-bromophenylacetyl)-amino-4-chloro-3-ethyl-1-methylpyrazole]",melting point,,167 to 168 °C
CCc1nn(C)c(NC(=O)Cc2c(C)cc(-c3ccccc3OC)cc2C)c1C#N [Example 165],Physical constant (logP),[1],logP = 3.20
CCc1nn(C)c(NC(=O)Cc2c(C)cc(-c3ccc(Cl)cc3)cc2C)c1C#N [Example 166],Physical constant (logP),[1],logP = 3.74
CCc1nn(C)c(NC(=O)Cc2c(C)cc(-c3cccc(Cl)c3)cc2C)c1C#N [Example 167],Physical constant (logP),[1],logP = 3.70
CCc1nn(C)c(NC(=O)Cc2cc(-c3ccccc3Cl)c(C)cc2C)c1C#N [Example 169],Physical constant (logP),[1],logP = 3.51
CCc1nn(C)c(NC(=O)Cc2cc(-c3ccc(Cl)cc3)c(C)cc2C)c1C#N [Example 170],Physical constant (logP),[1],logP = 3.77
CCc1nn(C)c(NC(=O)Cc2c(F)cc(F)c(F)c2C(F)(F)F)c1C#N [Example 172],Physical constant (logP),[1],logP = 2.59
CCOC(=O)c1c(CC)nn(C)c1NC(=O)Cc1cccc(Oc2ccc(Cl)cc2)c1 [drawing 282],Efficacy in %,[2],100%
CCOC(=O)c1c(CC)nn(C)c1NC(=O)Cc1cccc(Oc2ccc(Cl)cc2)c1 [drawing 283],Efficacy in %,Pyrenophora teres,100%
CCOC(=O)c1c(CC)nn(C)c1NC(=O)Cc1cccc(Oc2ccc(OC(F)(F)F)cc2)c1 [drawing 284],Efficacy in %,Podosphaera leucotricha,92%
CCOC(=O)c1c(CC)nn(C)c1NC(=O)Cc1ccc(-c2ccc(OC(F)(F)F)cc2)cc1 [drawing 285],Efficacy in %,Podosphaera leucotricha,100%
CCc1nn(C)c(NC(=O)Cc2ccc(-c3ccc(OC(F)(F)F)cc3)cc2)c1Cl [drawing 286],Efficacy in %,Podosphaera leucotricha,100%
CCOC(=O)c1c(CC)nn(C)c1NC(=O)Cc1ccc(-c2ccc(OC(F)(F)F)cc2)cc1 [drawing 287],Efficacy in %,Sphaerotheca fuliginea,100%
CCc1nn(C)c(NC(=O)Cc2ccc(-c3ccc(OC(F)(F)F)cc3)cc2)c1Cl [drawing 288],Efficacy in %,Sphaerotheca fuliginea,100%
CCOC(=O)c1c(CC)nn(C)c1NC(=O)Cc1cccc(Oc2ccc(OC(F)(F)F)cc2)c1 [drawing 290],Efficacy in %,Venturia inaequalis,90%
CCOC(=O)c1c(CC)nn(C)c1NC(=O)Cc1ccc(-c2ccc(OC(F)(F)F)cc2)cc1 [drawing 291],Efficacy in %,Venturia inaequalis,93%
CCc1nn(C)c(NC(=O)Cc2ccc(-c3ccc(OC(F)(F)F)cc3)cc2)c1Cl [drawing 292],Efficacy in %,Venturia inaequalis,96%
